# Test results taken from article PMC3802547 (Molecular bioSystems, 2011).
# Biological target: LasB (elastase) (Pseudomonas aeruginosa, UniProt P14756)
# Test: BODIPY-FL casein fluorescence protease assay with purified LasB
# Assay type: biochemical
# Sequence of LasB (elastase) (P14756 198-498): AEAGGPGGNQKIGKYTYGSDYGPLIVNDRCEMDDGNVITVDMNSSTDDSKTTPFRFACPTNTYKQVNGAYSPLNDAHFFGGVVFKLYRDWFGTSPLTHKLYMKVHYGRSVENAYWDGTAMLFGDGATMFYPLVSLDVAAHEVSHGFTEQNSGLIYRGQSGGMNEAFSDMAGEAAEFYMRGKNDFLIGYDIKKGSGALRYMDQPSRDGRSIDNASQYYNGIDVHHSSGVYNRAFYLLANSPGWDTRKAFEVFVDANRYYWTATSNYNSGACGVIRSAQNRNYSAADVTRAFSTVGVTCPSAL
compound,measurement,value
"CCCCCCC[C@@H]1C[C@H]1CCC(=O)O [compound 4, lyngbyoic acid]",Ki,5.4 µM
